From US12630532B2, “Indole-substituted quinolines and their combination with Plk1 inhibitors for the treatment of cancer” (UNIVERSITY OF KENTUCKY RESEARCH FOUNDATION, priority 2021, dated 2026)

Columns and labels:
[1] = cited from earlier work
[2] = test system: LS174T colon cancer cell xenografts; assay: In vivo antineoplastic activity and gross toxicity in LS174T xenografts
Experimental: Mouse studies were carried out with approval from the Institutional Animal Care and Use Committee of the University of Kentucky (2020-3531). All methods were performed in accordance with the relevant guidelines and regulations according to protocols. […] After tumors were established, mice were randomized according to tumor volume and divided into groups for treatments (five mice in each group, two tumors on each mouse).
The in vivo evaluation of ISQ-1 and BI2536 followed the approved protocol. After tumors were established, ISQ-1 was formulated in a mixture of Tween-80 (5%), DMSO (10%), PEG400 (25%) and PBS (60%) and was intraperitoneally administered to the ISQ-1 group at a daily dose of 20 mg/kg mouse body weight. The first day of treatment was set as day 0. At days 0, 4, and 7, BI2536 dissolved in 0.1 N HCl and then diluted 5-fold using 0.9% NaCl was given via gavage to the B12536 group. Mice in combination therapy group were treated with both ISQ-1 and BI2536 following aforementioned dosing schedules. At day 11 treatment was ceased and mice were sacrificed. Tumors and mouse weights were measured, and tumor volumes were calculated as Length×width^2/2.
Major biological assays were performed at least twice. Data were shown as mean SEM. For the mice study, five mice with two tumors on the lower flanks of each mouse were used in each treatment group. Sizes of the two tumors from each mouse were averaged, standardized by the tumor size on day 0, and log-transformed. ANOVA with Tukey's HSD test was used to compare the tumor size at the end of the study (day 11) between the combination therapy of ISQ-1 and B12536 and each single compound as well as the control. The equal variance assumption of ANOVA was assessed by Bartlett's test. All statistical studies were overseen in collaboration with a statistician in the University of Kentucky's Markey Cancer Center.

[3] = test system: mitochondrial ETC (electron transport chain); assay: Seahorse assay (OCR) in Beas-2B cells; format: cell-based
Experimental: Seahorse assays were carried out following a published procedure (25). Briefly, 2.5×10^4 cells in 80 μL of medium were seeded in XF96 Cell Culture microplate for all experiments. On the next day, cell culture media were replaced with Seahorse XF modified media. Cells were treated with 1 μM of oligomycin A, 1.0 μM FCCP and mixture of 1.0 μM of rotenone and 1.0 μM of antimycin A in standard mitochondrial stress test conditions. To determine the uncoupler effects, FCCP was replaced with an equal volume of DMSO, or a compound to be tested in DMSO solution.

[4] = test system: AMPK; assay: AMPK activation (western blotting, pAMPK/pACC) in LS174T cells; format: cell-based
Experimental: (§1) Western blotting were performed according to previous procedures (25). Cells were split into 12-well plates. After 24 hours, compounds at indicated final concentrations were added to each well for another 24 hours unless otherwise noted. DMSO was used as a control. Cells were lysed in the appropriate volume of lysis buffer: 50 mM HEPES, 100 mM NaCl, 2 mM EDTA, 1% (v/v) glycerol, 50 mM NaF, 1 mM Na3VO4, 1% (v/v) Triton X-100, with protease inhibitors. Cell lysates were centrifuged, and supernatants were mixed with 6× protein loading buffer and boiled. The obtained samples were analyzed with standard western blotting methods with indicated antibodies.

[5] = test system: mitochondrial ETC complex I; assay: Mitochondrial ETC complex activity measurements using PMP-permeabilized cells; format: cell-based; conditions: pyruvate substrate
Experimental: Mitochondrial ETC complex activity measurements were taken using the Agilent Seahorse Assay with XF PMP (Agilent, Santa Clara, CA) following manufacturer's instructions. Adherent monolayer cells were gently washed with mitochondrial assay solution (MAS) (220 mM mannitol, 70 mM sucrose, 10 mM KH2PO4, 5 mM MgCl2, 2 mM HEPES, 1 mM EGTA, and 0.2% (w/v) fatty acid free BSA) and cell growth media was replaced with MAS supplemented with 4 mM adenosine diphosphate (ADP), 10 mM pyruvate, and 1 nM PMP. Following calibration, the assay was immediately performed by measuring baseline with two cycles of 0.5 min mixing, 0.5 min waiting, and 2 min measuring. After baseline measurements, sequential injections of DMSO, compounds of interest or 2 μM rotenone, 10 mM succinate, 2 μM antimycin A, and a combination of 10 mM ascorbate and 100 μM TMPD were also performed with each followed by two cycles of 0.5 min mixing, 0.5 min waiting, and 2 min measuring. Data were then normalized to cell counts using the Biotek Cytation 1 (BioTek Instruments, Winooski, VT, USA).

[6] = test system: LS174T cells; assay: Cell proliferation inhibition assay (5 days, cell counting); format: cell-based
Experimental: Cell proliferation inhibition assays were done following a previous report (32). Cancer cells were seeded into 24-well plates at a density of 20,000 cells per well in 1 mL of culture medium and were cultured overnight at 37° C. Compounds and the vehicle control (DMSO) were added to the cells. After 5 days, the medium was removed, and 100 μL of trypsin was added. The cells were resuspended in phosphate-buffered saline (PBS) and were counted by Vi-CELL XR 2.03 (Beckman Coulter, Inc. USA). The ratio R of the number of viable cells in the compound treatment group to the number of viable cells in DMSO treatment group was taken as relative growth, and the percentage growth inhibition was calculated as (1−R)*100.

[7] = test system: Plk1; assay: Western blotting of cell signaling pathways in LS174T cells; format: cell-based; conditions: LS174T colon cancer cells, 24 hours
Experimental: as §1

[8] = test system: Wnt signaling target genes c-Myc and axin2; assay: Western blotting of Wnt signaling target genes in LS174T cells; format: cell-based; conditions: 24 hours
Experimental: as §1

CC[C@@H]1C(=O)N(C)c2cnc(Nc3ccc(C(=O)NC4CCN(C)CC4)cc3OC)nc2N1C1CCCC1 [BI2536, reference compound]
antitumor activity in Phase II clinical trials ([1]; Phase II): only limited antitumor activity
safety in phase I clinical trials ([1]; phase I): safe
gross toxicities on the basis of mouse weight measurements ([2]; mouse, in vivo): No gross toxicities
tumor growth of LS174T xenografts ([2]; nude mice, ISQ-1 20 mg/kg daily i.p., BI2536 30 mg/kg twice a week by gavage, day 11): inhibited tumor growth but did not induce tumor regression

Cn1cc(-c2cc3ccc(N4CCC(C#N)CC4)cc3nc2N)c2ccccc21 [ISQ-7, 1-(2-Amino-3-(1-methyl-1H-indol-3-yl)quinolin-7-yl)piperidine-4-carbonitrile]
ETC complex V inhibition (oligomycin replaced with compound) [3]: did not inhibit ETC complex V
uncoupler effect (FCCP replaced with compound) [3]: no uncouplers
AMPK activation [4]: activated AMPK
ETC complex I inhibition (pyruvate/NADH-linked respiration) [5]: inhibited complex I
percentage inhibition of LS174T cell proliferation at 500 nM, compared among ISQs (FIG. 2B) ([6]; 500 nM): comparable to the N,N-dimethylamino group in ISQ-1
inhibition at 0.062 µM ([6]; Homo sapiens, LS174T, 120 h, 62 nM, 5 days): 19 ± 5.5%
inhibition at 0.125 µM ([6]; Homo sapiens, LS174T, 120 h, 125 nM, 5 days): 89 ± 0.2%
inhibition at 0.25 µM ([6]; Homo sapiens, LS174T, 120 h, 250 nM, 5 days): 98 ± 0.6%
inhibition at 0.5 µM ([6]; Homo sapiens, LS174T, 120 h, 500 nM, 5 days): 97 ± 0.7%
IC50 ([6]; Homo sapiens, dose response studies, LS174T, read-out: IC50 values in cell proliferation assays): ~100 nM
Plk1 expression upon drug treatment [7]: induced
effect on Wnt signaling target genes c-Myc and axin2 [8]: strongly inhibited
